Reference: patent US6737383B1, “Herbicidal oxadiazolidines” (priority 1999, dated 2004)

Tests used:
duck salad = experiment: Test B flood test duck salad; type: in vivo, Heteranthera limosa
In short: (§1)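 Read-out is a visual response score from 0 (no effect) to 10 (complete control), assigned by comparison with untreated controls. Treatment was applied at the 2-leaf stage, and plants stayed in the greenhouse for twelve to sixteen days before scoring.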

rice = experiment: Test B flood test rice; type: in vivo, Oryza sativa
In short: as §1

wild oat = experiment: Test B pre/postemergence wild oat; type: in vivo, Avena fatua
In short: (§2)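 Test chemicals in a non-phytotoxic solvent mixture with surfactant were sprayed preemergence onto planted seeds and postemergence onto plants 2 to 18 cm tall (1- to 4-leaf stage). After twelve to sixteen days in a greenhouse, injury was visually rated against untreated controls from 0 (no effect) to 10 (complete control).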

giant foxtail = experiment: Test B pre/postemergence giant foxtail; type: in vivo, Setaria faberii
In short: as §2

corn = experiment: Test B pre/postemergence corn; type: in vivo, Zea mays
In short: as §2

morningglory = experiment: Test B pre/postemergence morningglory; type: in vivo, Ipomoea hederacea
In short: as §2

crabgrass = experiment: Test B pre/postemergence crabgrass; type: in vivo, Digitaria sanguinalis
In short: as §2

blackgrass = experiment: Test B pre/postemergence blackgrass; type: in vivo, Alopecurus myosuroides
In short: as §2

soybean = experiment: Test B pre/postemergence soybean; type: in vivo, Glycine max
In short: as §2

velvetleaf = experiment: Test B pre/postemergence velvetleaf; type: in vivo, Abutilon theophrasti
In short: as §2

rape = experiment: Test B pre/postemergence rape; type: in vivo, Brassica napus
In short: as §2

wheat = experiment: Test B pre/postemergence wheat; type: in vivo, Triticum aestivum
In short: as §2

surinam grass = experiment: Test B pre/postemergence surinam grass; type: in vivo, Brachiaria decumbens
In short: as §2

bedstraw = experiment: Test B pre/postemergence bedstraw; type: in vivo, Galium aparine
In short: as §2

purple nutsedge = experiment: Test B pre/postemergence purple nutsedge; type: in vivo, Cyperus rotundus; details: Postemergence
In short: as §2

pigweed = experiment: Test B pre/postemergence pigweed; type: in vivo, Amaranthus retroflexus
In short: as §2

[1] = Rate 62 g/ha, headed Pre-emergence (flood test species), scale 0 to 10 (0 no effect, 10 complete control)
[2] = Rate 125 g/ha, Pre-emergence, flood test species, scale 0 to 10 where 0 is no effect and 10 is complete control
[3] = Rate 250 g/ha, Pre-emergence, flood-test species, scale 0 to 10, 0 is no effect, 10 is complete control
[4] = Rate 500 g/ha, Pre-emergence, flood test species, scale 0 to 10 (0 no effect, 10 complete control)
[5] = Preemergence, Rate 62 g/ha, scale of 0 to 10 where 0 is no effect and 10 is complete control
[6] = Preemergence, Rate 250 g/ha, scale of 0 to 10 where 0 is no effect and 10 is complete control
[7] = Preemergence, Rate 500 g/ha, scale of 0 to 10 where 0 is no effect and 10 is complete control
[8] = Rate 62 g/ha, Postemergence, scale of 0 to 10 where 0 is no effect and 10 is complete control
[9] = Rate 125 g/ha, Postemergence, scale 0 to 10
[10] = Rate 125 g/ha, Preemergence, scale of 0 to 10 where 0 is no effect and 10 is complete control
[11] = Rate 500 g/ha, Postemergence, scale 0 to 10, 0 no effect, 10 complete control

CC(C)N(C(=O)n1oc(=O)n(-c2cccnc2)c1=O)c1ccccc1 [Compound 235]
6: Plant response rating (0 to 10; 0 is no effect, 10 is complete control), Morningglory (morningglory; Rate 250 g/ha, Postemergence)
7: Morningglory plant response rating (morningglory; [11])
0: Ducksalad plant response rating (duck salad; [1]) | Ducksalad plant response rating (duck salad; [2]) | Ducksalad plant response rating (duck salad; [3]) | Ducksalad plant response rating (duck salad; [4]) | Rice plant response rating (rice; [1]) | Rice plant response rating (rice; [2]) | Rice plant response rating (rice; [3]) | Rice plant response rating (rice; [4]) | Wild oats plant response rating (wild oat; [5]) | Wild oats plant response rating (wild oat; [6]) | Plant response rating, Wild oats (wild oat; [7]) | Wild oats plant response rating (wild oat; [8]) | Wild oats plant response rating (wild oat; [9]) | Wild oats plant response rating (wild oat; [10]) | Plant response rating (0 to 10; 0 is no effect, 10 is complete control), Wild oats (wild oat; Rate 250 g/ha, Postemergence) | Wild oats plant response rating (wild oat; [11]) | Giant foxtail plant response rating (giant foxtail; [5]) | Giant foxtail plant response rating (giant foxtail; [6]) | Plant response rating, Giant foxtail (giant foxtail; [7]) | Giant foxtail plant response rating (giant foxtail; [8]) | Giant foxtail plant response rating (giant foxtail; [9]) | Giant foxtail plant response rating (giant foxtail; [10]) | Plant response rating (0 to 10; 0 is no effect, 10 is complete control), Giant foxtail (giant foxtail; Rate 250 g/ha, Postemergence) | Giant foxtail plant response rating (giant foxtail; [11]) | Corn plant response rating (corn; [5]) | Corn plant response rating (corn; [6]) | Plant response rating, Corn (corn; [7]) | Corn plant response rating (corn; [8]) | Corn plant response rating (corn; [9]) | Corn plant response rating (corn; [10]) | Plant response rating (0 to 10; 0 is no effect, 10 is complete control), Corn (corn; Rate 250 g/ha, Postemergence) | Corn plant response rating (corn; [11]) | Morningglory plant response rating (morningglory; [5]) | Morningglory plant response rating (morningglory; [6]) | Plant response rating, Morningglory (morningglory; [7]) | Morningglory plant response rating (morningglory; [10]) | Crabgrass plant response rating (crabgrass; [5]) | Crabgrass plant response rating (crabgrass; [6]) | Plant response rating, Crabgrass (crabgrass; [7]) | Crabgrass plant response rating (crabgrass; [8]) | Crabgrass plant response rating (crabgrass; [9]) | Crabgrass plant response rating (crabgrass; [10]) | Plant response rating (0 to 10; 0 is no effect, 10 is complete control), Crabgrass (crabgrass; Rate 250 g/ha, Postemergence) | Crabgrass plant response rating (crabgrass; [11]) | Blackgrass plant response rating (blackgrass; [5]) | Blackgrass plant response rating (blackgrass; [6]) | Plant response rating, Blackgrass (blackgrass; [7]) | Blackgrass plant response rating (blackgrass; [8]) | Blackgrass plant response rating (blackgrass; [9]) | Blackgrass plant response rating (blackgrass; [10]) | Plant response rating (0 to 10; 0 is no effect, 10 is complete control), Blackgrass (blackgrass; Rate 250 g/ha, Postemergence) | Blackgrass plant response rating (blackgrass; [11]) | Soybean plant response rating (soybean; [5]) | Soybean plant response rating (soybean; [6]) | Plant response rating, Soybean (soybean; [7]) | Soybean plant response rating (soybean; [8]) | Soybean plant response rating (soybean; [9]) | Soybean plant response rating (soybean; [10]) | Plant response rating (0 to 10; 0 is no effect, 10 is complete control), Soybean (soybean; Rate 250 g/ha, Postemergence) | Soybean plant response rating (soybean; [11]) | Velvetleaf plant response rating (velvetleaf; [5]) | Velvetleaf plant response rating (velvetleaf; [6]) | Plant response rating, Velvetleaf (velvetleaf; [7]) | Velvetleaf plant response rating (velvetleaf; [8]) | Velvetleaf plant response rating (velvetleaf; [9]) | Velvetleaf plant response rating (velvetleaf; [10]) | Plant response rating (0 to 10; 0 is no effect, 10 is complete control), Velvetleaf (velvetleaf; Rate 250 g/ha, Postemergence) | Velvetleaf plant response rating (velvetleaf; [11]) | Rape plant response rating (rape; [5]) | Rape plant response rating (rape; [6]) | Plant response rating, Rape (rape; [7]) | Rape plant response rating (rape; [8]) | Rape plant response rating (rape; [9]) | Rape plant response rating (rape; [10]) | Plant response rating (0 to 10; 0 is no effect, 10 is complete control), Rape (rape; Rate 250 g/ha, Postemergence) | Rape plant response rating (rape; [11]) | Wheat plant response rating (wheat; [5]) | Wheat plant response rating (wheat; [6]) | Plant response rating, Wheat (wheat; [7]) | Wheat plant response rating (wheat; [8]) | Wheat plant response rating (wheat; [9]) | Wheat plant response rating (wheat; [10]) | Plant response rating (0 to 10; 0 is no effect, 10 is complete control), Wheat (wheat; Rate 250 g/ha, Postemergence) | Wheat plant response rating (wheat; [11]) | B. signalgrass plant response rating (surinam grass; [5]) | B. signalgrass plant response rating (surinam grass; Preemergence, Rate 250 g/ha, scale 0 to 10, 0 is no effect, 10 is complete control) | Plant response rating, B. signalgrass (surinam grass; [7]) | B. signalgrass plant response rating (surinam grass; [8]) | B. signalgrass plant response rating (surinam grass; Rate 125 g/ha, Postemergence, scale 0 (no effect) to 10 (complete control)) | B. signalgrass plant response rating (surinam grass; [10]) | Plant response rating (0 to 10; 0 is no effect, 10 is complete control), B. signalgrass (surinam grass; Rate 250 g/ha, Postemergence) | B. signalgrass plant response rating (surinam grass; [11]) | Bedstraw plant response rating (bedstraw; [5]) | Bedstraw plant response rating (bedstraw; [6]) | Plant response rating, Bedstraw (bedstraw; [7]) | Bedstraw plant response rating (bedstraw; [8]) | Bedstraw plant response rating (bedstraw; [9]) | Bedstraw plant response rating (bedstraw; [10]) | Plant response rating (0 to 10; 0 is no effect, 10 is complete control), Bedstraw (bedstraw; Rate 250 g/ha, Postemergence) | Bedstraw plant response rating (bedstraw; [11]) | Nutsedge plant response rating (purple nutsedge; Rate 62 g/ha, scale of 0 to 10 where 0 is no effect and 10 is complete control) | Nutsedge plant response rating (purple nutsedge; Rate 125 g/ha, scale 0 to 10) | Plant response rating (0 to 10; 0 is no effect, 10 is complete control), Nutsedge (purple nutsedge; Rate 250 g/ha) | Nutsedge plant response rating (purple nutsedge; Rate 500 g/ha, scale 0 to 10, 0 no effect, 10 complete control) | Redroot pigweed plant response rating (pigweed; [5]) | Redroot pigweed plant response rating (pigweed; [6]) | Plant response rating, Redroot pigweed (pigweed; [7]) | Redroot pigweed plant response rating (pigweed; [8]) | Redroot pigweed plant response rating (pigweed; [9]) | Redroot pigweed plant response rating (pigweed; [10]) | Plant response rating (0 to 10; 0 is no effect, 10 is complete control), Redroot pigweed (pigweed; Rate 250 g/ha, Postemergence) | Redroot pigweed plant response rating (pigweed; [11])
2: Morningglory plant response rating (morningglory; [8]) | Morningglory plant response rating (morningglory; [9])
